Consider 18 compounds from patent publication US20210380595A1 (ARAXES PHARMA LLC, priority 2018, published 2021).

One assay addresses T1, KRAS G12C 1-169, his-tagged protein, GDP-loaded (Homo sapiens, UniProt P01116, G12C).
T1 construct: KRAS G12C 1-169, his-tagged protein, GDP-loaded
Kind of assay: Biochemical assay: covalent modification of KRAS G12C measured by mass spectrometry (RapidFire/TOF or Q-Exactive). It counts as binding. The conditions noted are these: tested at 32 μM. On the procedure:
Test compounds were prepared as 10 mM stock solutions in DMSO (Fisher cat. #BP-231-100). KRAS G12C 1-169, his-tagged protein, GDP-loaded is diluted to 2 μM or 0.5 μM in buffer (20 mM Hepes, 150 mM NaCl, 1 mM MgCl2). Compounds were tested for activity as follows:
Compounds were diluted to 50× final test concentration in DMSO in 96-well storage plates. Compound stock solutions were vortexed before use and observed cwerefully for any sign of precipitation. Dilutions were as follow: • For 32 μM final compound concentration, compounds were diluted to 1600 μM (3 μL 10 mM compound stock +15.75 μL DMSO and mixed well by pipetting. • For 8 μM final compound concentration, compounds were diluted to 400 μM (2 μL 10 mM compound stock +48 μL DMSO) and mixed well by pipetting. 49 μL of the stock protein solution was added to each well of a 96-well PCR plate (Fisher cat#1423027). 1 μl of the diluted 50× compounds were added to appropriate wells in the PCR plate using 12-channel pipettor. Reactions were mixed carefully and thoroughly by pipetting up/down with a 200 μL multi-channel pipettor. The plate was sealed well with aluminum plate seal, and protein and compound were allowed to react for a desired amount of time. 5 μL of 2% formic acid (Fisher cat#A117) in de-ionized H2O was then added to each well followed by mixing with a pipette to quench the reaction. The plate was then resealed with aluminum seal and stored frozen on dry ice until analyzed as described below.
The above described assays were analyzed by mass spectrometry according to one of the following two procedures:
The MS instrument was set to positive polarity, 2 GHz resolution, and low mass (1700) mode and allowed to equilibrate for 30 minutes. The instrument was then calibrated, switched to acquisition mode and the appropriate method loaded.
After another 30 minute equilibration time, a blank batch (i.e., buffer) was run to ensure equipment is operating properly. The samples were thawed at 37° C. for 10 minutes, briefly centrifuged, and transfered to the bench top. Wells A1 and H12 were spiked with 1 μL 500 μM internal standard peptide, and the plates centrifuged at 2000×g for 5 minutes. The method was then run and masses of each individual well recorded.
The masses (for which integration data is desired) for each well were pasted into the platemap and exported from the analysis. Masses for the internal standards were exported as well. The data at 50 ppm was extracted for the +19 charge state, and identity of well A1 was assigned using the internal standard spike and integrated. Peak data was exported as a TOF list and the above steps were repeated individually, for the +20, +21, +22, +23, +24, and +25 charge states.
The masses and peak intensities of KRAS G12C protein species were measured using a Dionex RSLCnano system (Thermo Scientific) connected to a Q Exactive Plus mass spectrometer (Thermo Scientific).
20 μL of sample was loaded onto a Aeris™ 3.6 μm WIDEPORE C4 200 Å, LC Column 50×2.1 mm column maintained at 40° C. at a flow rate of 600 μL/min with 80% Solvent A (0.1% formic acid in H2O) and 20% Solvent B (0.1% formic acid in acetonitrile). The liquid chromatography conditions were 20% solvent B for 1 minute, 20% to 60% solvent B for 1.5 minutes, 60% to 90% solvent for 0.5 minute, 90% solvent B for 0.2 minute, 90% to 20% solvent B for 0.2 minute, and then equilibrated for 1.6 minute before the following sample injection. The flow rate was maintained at 600 μL/min throughout the sample analysis.
The mass spectrometer was operated in profile mode at a resolution of 17500, 5 microscans, using 50 msec max injection time and an AGC target of 1×10^6, and a full mass range from 800-1850 m/z was recorded. The intact protein mode was applied for optimal ion transfer and maximum sensitivity. The ionization method was electrospray ionization, which used a spray voltage of 4 kV, sheath gas flow set to 50 AU, auxiliary gas flow set to 10 AU and sweep gas flow set to 1 AU. […]
Turning to `Cc1ccc2[nH]ncc2c1-c1cccc(N2CCC3(CN(C(=O)/C=C/CN(C)C)C3)C2)c1C#N` [Compound I-36, (E)-2-(2-(4-(dimethylamino)but-2-enoyl)-2,6-diazaspiro[3.4]octan-6-yl)-6-(5-methyl-1H-indazol-4-yl)benzonitrile], the Bind % result is “+ (+ indicates binding activity greater than 0% and up to 50%)”.

In the case of `C=CC(=O)N1CC2(CCN(c3cc(N4CCC5(CCN(C)C5)C4)cc(-c4c(C)ccc5[nH]ncc45)c3C#N)C2)C1` (stereo not drawn) [Compound I-41, 2-(2-acryloyl-2,6-diazaspiro[3.4]octan-6-yl)-6-(5-methyl-1H-indazol-4-yl)-4-(7-methyl-2,7-diazaspiro[4.4]nonan-2-yl)benzonitrile], the Bind % entry is “+++ (+++ indicates binding activity greater than 75%)”.

On to `Cc1ccc2[nH]ncc2c1-c1c(F)ccc(N2CCC3(CN(C(=O)/C=C/CN(C)C)C3)C2)c1C#N` [Compound I-46, (E)-6-(2-(4-(dimethylamino)but-2-enoyl)-2,6-diazaspiro[3.4]octan-6-yl)-3-fluoro-2-(5-methyl-1H-indazol-4-yl)benzonitrile], for which the Bind % entry is “+ (+ indicates binding activity greater than 0% and up to 50%)”.

With `Cc1ccc2cnn(C)c2c1-c1c(F)ccc(N2CCC3(CN(C(=O)/C=C/CN(C)C)C3)C2)c1C#N` [Compound I-47, (E)-2-(1,6-dimethyl-1H-indazol-7-yl)-6-(2-(4-(dimethylamino)but-2-enoyl)-2,6-diazaspiro[3.4]octan-6-yl)-3-fluorobenzo-nitrile], the Bind % result is “+ (+ indicates binding activity greater than 0% and up to 50%)”.

In the case of `C=CC(=O)N1CCC2(C1)CN(c1cc(OCc3ccccn3)cc(-c3c(C)ccc4[nH]ncc34)c1C#N)C2` [Compound I-48, 2-(6-acryloyl-2,6-diazaspiro[3.4]octan-2-yl)-6-(5-methyl-1H-indazol-4-yl)-4-(pyridin-2-ylmethoxy) benzonitrile], the Bind % result was “+ (+ indicates binding activity greater than 0% and up to 50%)”.

As to `CC#CC(=O)N1CCC2(C1)CN(c1cc(OCc3ccccn3)cc(-c3c(C)ccc4[nH]ncc34)c1C#N)C2` [Compound I-49, 2-(6-(but-2-ynoyl)-2,6-diazaspiro[3.4]octan-2-yl)-6-(5-methyl-1H-indazol-4-yl)-4-(pyridin-2-ylmethoxy) benzonitrile], the Bind % entry was “+ (+ indicates binding activity greater than 0% and up to 50%)”.

For `CC#CC(=O)N1CC2(CCN(c3cc(OCc4ccccn4)cc(-c4c(C)ccc5[nH]ncc45)c3C#N)CC2)C1` [Compound I-51, 2-(2-(but-2-ynoyl)-2,7-diazaspiro[3.5]nonan-7-yl)-6-(5-methyl-1H-indazol-4-yl)-4-(pyridin-2-ylmethoxy) benzonitrile], the Bind % entry was “+ (+ indicates binding activity greater than 0% and up to 50%)”.

Consider `C=CC(=O)N1CCC2(CCN(c3cc(OCc4ccccn4)cc(-c4c(C)ccc5[nH]ncc45)c3C#N)CC2)C1` [Compound I-52, 2-(2-acryloyl-2,8-diazaspiro[4.5]decan-8-yl)-6-(5-methyl-1H-indazol-4-yl)-4-(pyridin-2-ylmethoxy) benzonitrile], for which the Bind % entry was “+ (+ indicates binding activity greater than 0% and up to 50%)”.

For `CC#CC(=O)N1CCC2(CCN(c3cc(OCc4ccccn4)cc(-c4c(C)ccc5[nH]ncc45)c3C#N)CC2)C1` [Compound I-53, 2-(2-(but-2-ynoyl)-2,8-diazaspiro[4.5]decan-8-yl)-6-(5-methyl-1H-indazol-4-yl)-4-(pyridin-2-ylmethoxy) benzonitrile], the Bind % result is “+ (+ indicates binding activity greater than 0% and up to 50%)”.

Consider `Cc1ccc2cnn(C)c2c1-c1cc(OCc2ccccn2)cc(N2CCC3(CN(C(=O)/C=C/CN(C)C)C3)C2)c1C#N` [Compound I-54, (E)-2-(1,6-dimethyl-1H-indazol-7-yl)-6-(2-(4-(dimethylamino)but-2-enoyl)-2,6-diazaspiro[3.4]octan-6-yl)-4-(pyridin-2-ylmethoxy) benzonitrile], for which the Bind % result is “+++ (+++ indicates binding activity greater than 75%)”.

`CC#CC(=O)N1CCC2(CCN(c3cc(OCc4ccccn4)cc(-c4c(C)ccc5[nH]ncc45)c3C#N)C2)C1` (stereo not drawn) [Compound I-56, 2-(7-(but-2-ynoyl)-2,7-diazaspiro[4.4]nonan-2-yl)-6-(5-methyl-1H-indazol-4-yl)-4-(pyridin-2-ylmethoxy) benzonitrile]: the Bind % entry was “+ (+ indicates binding activity greater than 0% and up to 50%)”.

Take `C=CC(=O)N1CC2(CCN(c3ccc(OCCCN(C)C)c(-c4c(C)ccc5[nH]ncc45)c3C#N)C2)C1` [Compound I-57, 6-(2-acryloyl-2,6-diazaspiro[3.4]octan-6-yl)-3-(3-(dimethylamino)propoxy)-2-(5-methyl-1H-indazol-4-yl)benzonitrile]: the Bind % result was “+ (+ indicates binding activity greater than 0% and up to 50%)”.

As to `C=CC(=O)N1CCC2(CC1)CCN(c1cc(OCc3ccccn3)cc(-c3c(C)ccc4[nH]ncc34)c1C#N)C2` [Compound I-58, 2-(8-acryloyl-2,8-diazaspiro[4.5]decan-2-yl)-6-(5-methyl-1H-indazol-4-yl)-4-(pyridin-2-ylmethoxy) benzonitrile], the Bind % result is “+ (+ indicates binding activity greater than 0% and up to 50%)”.

The assay is the same for the next values; noted with them: tested at a concentration of 8 μM.
Take `C=CC(=O)N1CC2(CCN(c3ccc(OC)c(-c4c(C)ccc5[nH]ncc45)c3C#N)C2)C1` [Compound I-37, 6-(2-acryloyl-2,6-diazaspiro[3.4]octan-6-yl)-3-methoxy-2-(5-methyl-1H-indazol-4-yl)benzonitrile]: the Bind % entry was “+ (+ indicates binding activity greater than 0% and up to 50%)”.

On to `C=CC(=O)N1CC2(CCN(c3cc(N4CCC(N5CCN(C)[C@H](C)C5)CC4)cc(-c4c(C)ccc5[nH]ncc45)c3C#N)C2)C1` [Compound I-38, 2-(2-acryloyl-2,6-diazaspiro[3.4]octan-6-yl)-4-(4-((R)-3,4-dimethyl-piperazin-1-yl)piperidin-1-yl)-6-(5-methyl-1H-indazol-4-yl)benzonitrile], for which the Bind % result is “+++ (+++ indicates binding activity greater than 75%)”.

On to `C=CC(=O)N1CC2(CCN(c3cc(N4CCC(N5CCN(C)CC5)CC4)cc(-c4c(C)ccc5[nH]ncc45)c3C#N)C2)C1` [Compound I-39, 2-(2-acryloyl-2,6-diazaspiro[3.4]octan-6-yl)-6-(5-methyl-1H-indazol-4-yl)-4-(4-(4-methylpiperazin-1-yl)piperidin-1-yl)benzonitrile], for which the Bind % result is “+++ (+++ indicates binding activity greater than 75%)”.

For `C=CC(=O)N1CC2(CCN(c3cc(OC[C@@H]4CCCN4C)cc(-c4c(C)ccc5cnn(C)c45)c3C#N)C2)C1` [Compound I-40, 2-(2-acryloyl-2,6-diazaspiro[3.4]octan-6-yl)-6-(1,6-dimethyl-1H-indazol-7-yl)-4-(((S)-1-methylpyrrolidin-2-yl)methoxy) benzonitrile], the Bind % result is listed as “+++ (+++ indicates binding activity greater than 75%)”.

With `C=CC(=O)N1CC2(CCN(c3cc(OCc4ccccn4)cc(-c4c(C)ccc5[nH]ncc45)c3C#N)CC2)C1` [Compound I-50, 2-(2-acryloyl-2,7-diazaspiro[3.5]nonan-7-yl)-6-(5-methyl-1H-indazol-4-yl)-4-(pyridin-2-ylmethoxy) benzonitrile], the Bind % entry was “+ (+ indicates binding activity greater than 0% and up to 50%)”.
